# Test results reported in publication PMC12517105 (Toxicology Reports, 2025).
# Where two headings read alike, the source gives them in different places.
# Experiments:
# [1] = test system: genes related to xenobiotic metabolism and transport in ALI-HBECs; assay: RNA-sequencing, differentially expressed xenobiotic transport and metabolism genes; format: cell-based, human; conditions: 24 h, by at least one BAP treatment vs vehicle control
# Procedure: (§1) Cells were collected from inserts and lysed with RLT lysis buffer with 1 % β-mercaptoethanol using the RNeasy Mini Kit (Qiagen, Hilden, Germany) and stored at −80 °C. RNA was isolated from cell lysate using the RNeasy Mini Kit per the manufacturer’s protocol and was quantified on a Synergy HTX (BioTek, Winooski, VT, USA) plate reader equipped with a Take3 module (BioTek, Winooski, VT, USA). […] For library construction, mRNA was poly-A selected and libraries were prepared as previously described by Dasgupta et al.. High quality reads with a sequencing length greater than 150 bp were annotated and mapped to the human reference genome GRCh38.p14 using HISAT2, count tables were generated with feature Counts, and differential expression was conducted using the DESeq2 R package version 1.46.0 compared to vehicle control, [64]. In vehicle exposed samples, the fragment per kilobase million (FPKM) was calculated for each gene, and genes with an FPKM > 1 were considered constitutively expressed, [102], [114]. Genes associated with xenobiotic metabolism and transport were identified by pathway enrichment analysis in MetaCore (GeneGo, Thomson Reuters, Carlsbad, CA) and by literature search.
# CYP1A1 [2] = assay: CYP1A1 activity, P450-Glo CYP1A1 Assay in ALI-HBECs; format: cell-based, human; conditions: BAP 2.26 µg/cm^2, 0-48 h
# Procedure: CYP1A1 activity was measured in ALI-HBECs using the P450-Glo™ CYP1A1 Assay System (Promega, Madison, WI). The protocol was adapted to assess CYP1A1 activity in ALI-HBECs. Luciferin-CEE solution was diluted in DPBS, ALI-HBEC basal media was replaced with DPBS, and 50 µL of Luciferin-CEE solution was added to the apical surface. […] Luminescence was recorded on a Synergy HTX plate reader. Cell viability was measured using the CellTiter-Glo® (CTG) Luminescent Cell Viability Assay (Promega, Madison, WI) per manufacturer’s protocol, and luminescence was recorded on a Synergy HTX plate reader. Background luminescence was subtracted from all data, and CYP1A1 activity was normalized to cell viability for each sample.
# ALI-HBECs [3] = assay: Mass balance experiments: BAP and metabolites in cell, media and mucus fractions by UPLC; format: in vitro ADME, human
# Procedure: (§2) Normal HBECs (Lonza, Basel, Switzerland) were expanded to passage 4 in PneumaCult™-Ex Plus medium and transferred to 12-well plates with 12 mm transwell inserts ([…] Technologies, Vancouver, BC, Canada) and 30,000 cells per insert or 24-well plates with 6.5 mm transwell inserts ([…] Technologies, Vancouver, BC, Canada) and 9000 cells per insert for differentiation at the ALI using PneumaCult™-ALI medium. Cells were cultured at the ALI for 25 days at 37°C and 5 % CO2 with media changes every 2–3 days and mucus washes using DPBS on the apical surface once a week starting at 14 days post air-lifting to maintain healthy ALI cultures. Just before exposure, media was changed and ALI-HBECs were apically washed with DPBS or ALI media to remove mucus.
# (§3) Glass pipettes were used for all collection and extraction steps to reduce loss of compound from binding to plastic. ALI media was used instead of DPBS for all rinse and collection steps due to interference with the fluorescence detector. At each timepoint, basal media was collected and the bottom of the insert rinsed, the apical surface was washed and rinses collected, and cells were collected by scraping with a stainless-steel spatula and rinsed from the insert. All collected fractions were flash frozen in liquid nitrogen and stored at −80°C.
# (§4) For Phase 2 metabolite analysis, samples were incubated with β-glucuronidase to deconjugate glucuronide and […] metabolites following methods described by Combie et al.. For cell fractions, 0.1 mm glass beads were added to the sample and placed in a Next Advance Bullet Blender™ 24 (Troy, NY) for 3 min to fully lyse cells and increase recovery. All cell, media, and mucus samples were transferred to amber glass vials and adjusted to pH 5 with acetic acid. β-glucuronidase reconstituted in water was added to samples at 5000 U/mL, and samples were incubated at 65°C for 3 h. Samples were allowed to cool to room temperature before continuing with extractions.
# (§5) All samples were spiked with DBC as an internal standard for a final concentration of 2.5 μM to correct compound recovery for extraction efficiency. Cell fractions not previously incubated with β-glucuronidase were lysed by blending with 0.1 mm glass beads. All cell, media, and mucus samples were transferred to glass vials, vortexed and sonicated in ethyl acetate, and incubated for 2 h at −20°C to precipitate any protein. Samples were centrifuged at 2000 rcf for 10 min, and the ethyl acetate supernatant was collected. This was repeated for a total of three rounds. Ethyl acetate was evaporated to dryness under nitrogen gas, samples were reconstituted in 100 μL ACN, and samples were stored at −80°C.
# (§6) Glucuronide metabolite formation was estimated as the difference between samples incubated with and without β-glucuronidase at similar timepoints.
# [4] = as above; format: in vitro ADME, human; conditions: human
# Procedure: as §2, §3, §4, §5, §6
# ALI-HBECs [5] = test system: ALI-HBECs; parameters: species or system human; conditions: for Absorption into cells / Fraction of parent metabolites that are M1: optimization dataset
# Source text: A dosimetry model was developed to contextualize how PAHs interact with ALI-HBECs during exposure (Fig. 1). The model describes the time course dosimetry of two PAHs: […] Model parameters for cell and media compartments were characterized based on measurements for the ALI-HBEC culture system described by […] Technologies (Table 2). […] [28], [67]. We initially modeled parent and metabolite transport among compartments as passive diffusion using ordinary differential equations. […] Consistent with these previous observations, we observed induction of CYP1A1 activity as measured by P450-GloTM (see Results). […] CYP1A1 activity was included as a coefficient of the rate of metabolism for PAH parent which could be triggered by an induction switch. The switch allows for metabolism induction to be turned on or off in future uses of the model. When turned off, the CYP term is set to 1 and the rate of metabolism behaves as described above. […] Parameters were optimized against the optimization UPLC dataset. Parent absorption and metabolism were optimized together against data for BAP in cells. Parent permeability and volatilization were optimized together against data for BAP in media. […] All model parameters and CYP1A1 rational function coefficients were optimized using a maximum log likelihood objective with the Nelder-Mead algorithm and starting values set by visual inspection. The model was built in R version 4.4.2 (R Foundation for Statistical Computing, Vienna, Austria) using the RMagnolia R package version 1.3.15 (https://www.magnoliasci.com/rmagnolia/). The Akaike Information Criterion (AIC) was used for selecting the best model fit for CYP1A1 activity, inclusion of metabolism induction, and inclusion of active efflux. The final model with metabolism induction and active efflux of the metabolite was validated by comparison to data collected in the validation UPLC dataset.
# CYP1A1 [6] = assay: RNA-sequencing, differential expression of CYP1A1; format: cell-based, human; conditions: 24 h, BAP 0.076-3 µg/cm^2, vs vehicle control
# Procedure: as §1
# [7] = parent parameter, No Metabolism Induction
# [8] = parent parameter, With Metabolism Induction
# [9] = M1 parameter, Active Efflux model
# [10] = M1 parameter, Active Efflux model, set as parent value
# [11] = M1 parameter, Passive Diffusion model
# [12] = M1 parameter, Passive Diffusion model, set as parent value
compound,measurement,setting,value
"c1ccc2c(c1)cc1ccc3cccc4ccc2c1c34 [BAP, Benzo[a]pyrene]",number of genes related to xenobiotic metabolism significantly differentially expressed,[1],38 genes
same,number of genes related to xenobiotic transport significantly differentially expressed,[1],8 genes
same,time of maximum CYP1A1 activity,CYP1A1 [2],8 h
same,time by which BAP was cleared from cells,ALI-HBECs [3]; after exposure,≤ 48 h
same,time before BAP started releasing into the media fraction,ALI-HBECs [3]; optimization dataset,> 4 h
same,average BAP recovery at 0 h (amount),"ALI-HBECs [3]; optimization dataset, BAP 2.26 µg/cm^2",8.6 nmol
same,average BAP recovery at 0 h (amount),"ALI-HBECs [3]; validation dataset, BAP 4.67 µg/cm^2",16.8 nmol
same,"recovery at 0 h, 2.26 µg/cm^2",[4],85.2%
same,"recovery at 0 h, 4.67 µg/cm^2",[4],87.5%
same,Volatilization from media,ALI-HBECs [5]; [7],0.00436 h⁻¹
same,Absorption into cells,ALI-HBECs [5]; [7],0.47 h⁻¹
same,Volatilization from media,ALI-HBECs [5]; [8],0.00185 h⁻¹
same,Absorption into cells,ALI-HBECs [5]; [8],0.24 h⁻¹
same,CYP1A1 average induction (mRNA),CYP1A1 [6],12.6 fold
"OC1C=Cc2c(cc3ccc4cccc5ccc2c3c45)C1O (centres unmarked) [7,8-dihydrodiol, BAP-7,8-dihydrodiol]",Active efflux into media,ALI-HBECs [5]; [9],0.000869 L/h
same,Active efflux into mucus,ALI-HBECs [5]; [9],0.000445 L/h
same,Clearance by metabolism,ALI-HBECs [5]; [9],0.79 L/hr/kg^3/4
same,Fraction of parent metabolites that are M1,ALI-HBECs [5]; [9],0.099
same,Volatilization from media,ALI-HBECs [5]; [10],0.00185 h⁻¹
same,Volatilization from mucus,ALI-HBECs [5]; [10],0.00185 h⁻¹
same,Clearance by metabolism,ALI-HBECs [5]; [11],3.93 L/hr/kg^3/4
same,Permeability of cells,ALI-HBECs [5]; [11],0.061 cm/h
same,Fraction of parent metabolites that are M1,ALI-HBECs [5]; [11],0.022
same,Volatilization from media,ALI-HBECs [5]; [12],0.00185 h⁻¹
same,Volatilization from mucus,ALI-HBECs [5]; [12],0.00185 h⁻¹
same,Fraction of M1 formed from parent metabolites,ALI-HBECs [5]; model temporarily optimized to the validation set (BAP 4.67 µg/cm^2),0.05
